By IC50 is commonly meant the midpoint of a concentration-inhibition curve. The low end stands for inhibition by little substance, the high end for a need for much substance.

PFKFB4, sequence (Q16877 whole entry): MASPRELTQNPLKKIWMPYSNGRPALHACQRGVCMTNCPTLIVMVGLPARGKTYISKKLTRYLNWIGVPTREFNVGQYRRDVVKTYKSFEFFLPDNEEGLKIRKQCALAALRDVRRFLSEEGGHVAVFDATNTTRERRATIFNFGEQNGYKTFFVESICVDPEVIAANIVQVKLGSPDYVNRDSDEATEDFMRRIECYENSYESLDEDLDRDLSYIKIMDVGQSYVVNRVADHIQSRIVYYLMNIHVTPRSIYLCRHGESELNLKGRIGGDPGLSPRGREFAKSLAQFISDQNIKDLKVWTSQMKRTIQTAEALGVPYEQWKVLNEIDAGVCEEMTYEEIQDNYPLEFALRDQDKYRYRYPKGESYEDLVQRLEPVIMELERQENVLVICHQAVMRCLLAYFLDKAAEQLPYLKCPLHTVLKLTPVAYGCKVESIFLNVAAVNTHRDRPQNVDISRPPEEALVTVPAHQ

This assay deals with PFKFB4 (Homo sapiens (Human), UniProt Q16877). Kind of assay: PFKFB4 kinase activity, Method B (ADP-Glo Kinase Assay). It is filed as biochemical. The source says:
The PFKFB3 (placenta form) and PFKFB4 were produced and purified to homogeneity from E. coli at Biovitrum and at Sprint Bioscience. All other reagents were purchased from commercial sources. Two independent methods have been used for determination of the kinase activity of PFKFB3 (Method A and Method B). Method B has been used for determination of the kinase activity of PFKFB4.
Method B: The kinase activity of the bi-functional enzyme is readily quantified based on the production of ADP and F-2,6-P2 from ATP and F6P. The ADP is detected with a kit, ADP-Glo™ Kinase Assay^(a-e), from Promega. The assay is a luminescent ADP detection assay that measures kinase activity by quantifying the amount of ADP produced during the kinase reaction. The assay is performed in two steps; first, after the kinase reaction, an equal volume of ADP-Glo™ Reagent is added to terminate the kinase reaction and deplete the remaining ATP. Second, the Kinase Detection Reagent is added to simultaneously convert ADP to ATP and allow the newly synthesized ATP to be measured using a luciferase/luciferine reaction. The light generated is measured using a luminescence counter (1450 MicroBeta TriLux).
The assay was performed in white 384-well microtiter plates (OptiPlate, 6007299, PerkinElmer) by consecutive additions of 0.1 μL of a test compound solution (serial diluted in DMSO from compound DMSO stock solution and dispensed by acoustic dispensing from UV-star 384-well plate 7360153, VWR), 5 μL of enzyme solution and 5 μL of a substrate (fructose-6-phosphate (F6P) and adenosine-5′-triphosphate (ATP)) containing solution. […] Four reference dose response curves, one of them being the QC compound, were included in row O1-2, P1-2, and serial diluted as the test compounds. The final concentrations of all reagents in a total assay volume of 10.1 μL per well were: • 50 mM Tris-HCl at pH 8.0 • 10 mM MgCl2 • 5 mM Na2HPO4 at pH 8.0 • 81.48 nM PFKFB3 or 145 nM PFKFB4 • 8 μM ATP • 100 μM F6P (acid treated and then neutralized to remove any contaminating F-2,6-P2; see Van Schaftingen, 1984) • 0.005% Tween-20 • 1 mM dithiothreitol (DTT) • A test compound at various concentrations or controls (final DMSO concentration 0.99%)
Enzyme, compounds and controls were pre-incubated at room temperature for 15 min before the addition of substrate solution. The enzymatic reaction was allowed to proceed for 20 min (PFKFB3) or 40 min (PFKFB4) at room temperature. The reaction was terminated by the addition of 10 μL of ADP-Glo™ Reagent to all wells and the plate was incubated for 40 min at room temperature. After addition of 20 μL Kinase Detection Reagent to all wells the plate was incubated for 30 min at room temperature, followed by measurement in 1450 MicroBeta TriLux. All plates were centrifuged after each addition (room temperature, short spin, 500 RPM, Megafuge 1.0 Heraeus Instruments).
The inhibitory potency or IC50 values of test compounds on the kinase activity of PFKFB3 or PFKFB4 were calculated using a four-parameter model (model 205) in XLfit (IDBS ActivityBase XE Runner).
The compound `CSc1nccc(-c2ccc(S(=O)(=O)Nc3cccc(-c4nnn[nH]4)c3)s2)n1` [Example 21, 5-[2-(Methylthio)pyrimidin-4-yl]-N-[3-(1H-tetrazol-5-yl)phenyl]thiophene-2-sulfonamide] gave an IC50 of 420 nM. The value for `O=S(=O)(Nc1cccc(-c2nnn[nH]2)c1)c1ccc(-c2ccc(F)cc2F)s1` [Example 101, 5-(2,4-Difluorophenyl)-N-[3-(1H-tetrazol-5-yl)phenyl]thiophene-2-sulfonamide] was 600 nM.

For `Cc1ccc2sc(S(=O)(=O)Nc3cccc(-c4nnn[nH]4)c3)cc2c1` [Example 40, 5-Methyl-N-[3-(1H-tetrazol-5-yl)phenyl]-1-benzothiophene-2-sulfonamide], the IC50 was 140 nM. The value for `COc1ccc(-c2ccc(S(=O)(=O)Nc3cccc(-c4nnn[nH]4)c3)cc2)cc1` [Example 85, 4′-Methoxy-N-[3-(1H-tetrazol-5-yl)phenyl]biphenyl-4-sulfonamide] was 3720 nM; that for `Cc1c(S(=O)(=O)Nc2ncc(C(=O)O)s2)sc2ccc(C(C)C)cc12` [Example 7, 2-{[(5-Isopropyl-3-methyl-1-benzothien-2-yl)sulfonyl]amino}-1,3-thiazole-5-carboxylic acid] was 100 nM. The value for `Cc1c(S(=O)(=O)Nc2cccc(C(=O)O)c2)sc2c(Cl)cccc12` [Example 44, 3-{[(7-Chloro-3-methyl-1-benzothien-2-yl)sulfonyl]amino}benzoic acid] was 200 nM. Turning to `COc1cccc2c(C)c(S(=O)(=O)Nc3cccc(C(=O)O)c3)sc12` [Example 42, 3-{[(7-Methoxy-3-methyl-1-benzothien-2-yl)sulfonyl]amino}benzoic acid], half-maximal inhibition (IC50) required 420 nM. The value for `O=S(=O)(Nc1cccc(-c2nnn[nH]2)c1)c1ccc(-c2ccc(F)c(Cl)c2)s1` [Example 102, 5-(3-Chloro-4-fluorophenyl)-N-[3-(1H-tetrazol-5-yl)phenyl]thiophene-2-sulfonamide] was 660 nM. To `O=S(=O)(Nc1cccc(-c2nnn[nH]2)c1)c1ccc(-c2ccccc2Cl)s1` [Example 26, 5-(2-Chlorophenyl)-N-[3-(1H-tetrazol-5-yl)phenyl]thiophene-2-sulfonamide] belongs 750 nM. To `O=S(=O)(Nc1cccc(-c2nnn[nH]2)c1)c1ccc(Br)cc1F` [Example 57, 4-Bromo-2-fluoro-N-[3-(1H-tetrazol-5-yl)phenyl]benzenesulfonamide] belongs 1830 nM. On to `O=S(=O)(Nc1cccc(-c2nnn[nH]2)c1)c1cccc(-c2ccccc2)c1` [Example 16, N-[3-(1H-Tetrazol-5-yl)phenyl]biphenyl-3-sulfonamide], for which the IC50 was 390 nM. The value for `Cc1c(S(=O)(=O)Nc2cccc(-c3nnn[nH]3)c2)sc2ccc(F)cc12` [Example 43, 5-Fluoro-3-methyl-N-[3-(1H-tetrazol-5-yl)phenyl]-1-benzothiophene-2-sulfonamide] was 170 nM; that for `Cc1c(S(=O)(=O)Nc2cccc(C(=O)O)c2O)sc2ccc(Cl)cc12` [Example 134, 3-{[(5-Chloro-3-methyl-1-benzothiophen-2-yl)sulfonyl]amino}-2-hydroxybenzoic acid] was 180 nM. The value for `O=S(=O)(Nc1cccc(-c2nnn[nH]2)c1)c1c(Cl)cc(C(F)(F)F)cc1Cl` [Example 18, 2,6-Dichloro-N-[3-(1H-tetrazol-5-yl)phenyl]-4-(trifluoromethyl)benzenesulfonamide] was 510 nM.
